Source: patent US20240299388A1, “ERK1/2 AND SHP2 INHIBITORS COMBINATION THERAPY” (Erasca, Inc., priority 2021, published 2024)

Tests used:
[1] = test system: KRAS G12V NSCLC CDX model NCI-H441; assay: In vivo CDX xenograft efficacy, NCI-H441; set-up: species or system Balb/c nude mice; conditions: oral
Method: (§1) The vehicle/control article, 0.5% Methyl Cellulose & 0.1% Tween 80 or 100 mM acetic acid in deionized water with pH adjustment to 4.8-5.0, was prepared and stored under ambient conditions throughout the study period.
(§2) The test article, compound 1, was freshly prepared in vehicle of 0.5% Methyl Cellulose & 0.1% Tween 80 weekly and stored under ambient conditions. The combination agent, compound 2, was freshly prepared in vehicle of 100 mM acetic buffer weekly and stored under ambient conditions.
(§3) Female Balb/c nude mice were purchased from the Beijing Vital River Laboratory Animal Technology Co., Ltd. Mice were hosted at special pathogen-free (SPF) environment of vivarium facility and acclimated to their new environment for at least 3 days prior to initiation of any experiments. Mice were between 6-8 weeks of age at the time of implantation.
NCI-H441 is a human NSCLC cell line that harbors a KRAS^G12V mutation. The NCI-H441 cell line was purchased from the American Type Culture Collection (ATCC® HTB-174™). NCI-H441 cells were cultured in medium containing RPMI-1640 plus 10% Fetal Bovine Serum (FBS), at 37° C. in an atmosphere of 5% CO2 in air. NCI-H441 cells in 200 μL cell suspensions containing 5×10^6 cells mixed with 50% Matrigel were implanted into mice subcutaneously. When tumor volumes reached a mean of 200 mm^3, tumor-bearing mice were randomized into different groups with 8 mice in each group and treatment started on the day of randomization.
(§4) Mice were dosed by oral administration of vehicle control solution, compound 1, or compound 2 in monotherapy treatment groups. Mice were dosed by oral administration of combinations, including compound 1 with compound 2. The dosing volume was 5 mL/kg for each compound and interval of BID regimen was 8 hours. In the combination of compound 1 with compound 2, compound 1 was dosed at one-hour post compound 2 QD or first BID dose. […] The study was terminated at the end of 4-week treatment or when tumor volume in vehicle control group reached 2,000 mm^3.

[2] = test system: KRAS G12A NSCLC CDX model NCI-H2009; assay: In vivo CDX xenograft efficacy, NCI-H2009; set-up: species or system Balb/c nude mice; conditions: oral
Method: as §1, §2, §3
NCI-H2009 is a human NSCLC cell line that harbored a KRAS^G12A mutation. The NCI-H2009 cell line was purchased from the American Type Culture Collection (ATCC® CRL-5911). NCI-H2009 cells were cultured in medium containing RPMI-1640 plus 10% Fetal Bovine Serum (FBS) and supplemented with Glutamax and pyruvate at 37° C. in an atmosphere of 5% CO2 in air. NCI-H2009 cells in 100 μL cell suspensions containing 5×10^6 cells mixed with 50% Matrigel were implanted into mice subcutaneously. When tumor volumes reached a mean of 200 mm^3, tumor-bearing mice were randomized into different groups with 8 mice in each group and treatment started on the day of randomization.
as §4

## Cc1cnc(NC2CCOCC2)nc1-n1cnc(C(=O)N[C@H](CN)c2cc(F)cc(Cl)c2)c1 [Compound 1, (S)—N-(2-amino-1-(3-chloro-5-fluorophenyl)ethyl)-1-(5-methyl-2-((tetrahydro-2H-pyran-4-yl)amino)pyrimidin-4-yl)-1H-imidazole-4-carboxamide]
[1]; monotherapy 30 mg/kg BID
  TGI: 115%
[1]; monotherapy 30 mg/kg QD
  TGI: 94%
[2]; monotherapy 30 mg/kg BID
  TGI: 93%

## COCOC[C@H]1C[C@H]2COc3c(Sc4cnc(N5CCC6(CC5)CO[C@@H](C)[C@H]6N)c(CO)n4)ccnc3N2C1 [Compound 2, (3-((3S,4S)-4-amino-3-methyl-2-oxa-8-azaspiro[4.5]decan-8-yl)-6-(((6aS,8S)-8-((methoxymethoxy)methyl)-6a,7,8,9-tetrahydro-6H-pyrido[3,2-b]pyrrolo[1,2-d][1,4]oxazin-4-yl)thio)pyrazin-2-yl)methanol]
[1]; monotherapy 15 mg/kg QD
  TGI: 87%
[1]; monotherapy 30 mg/kg QD
  TGI: 101%
[2]; monotherapy 15 mg/kg QD
  TGI: 73%
[2]; monotherapy 30 mg/kg QD
  TGI: 90%
